Target: T1, ZFAT_C392 (Homo sapiens, UniProt Q9P243)
T1 construct: endogenous in cells; host or cells: 22Rv1
T1 sequence (Q9P243 1-1243): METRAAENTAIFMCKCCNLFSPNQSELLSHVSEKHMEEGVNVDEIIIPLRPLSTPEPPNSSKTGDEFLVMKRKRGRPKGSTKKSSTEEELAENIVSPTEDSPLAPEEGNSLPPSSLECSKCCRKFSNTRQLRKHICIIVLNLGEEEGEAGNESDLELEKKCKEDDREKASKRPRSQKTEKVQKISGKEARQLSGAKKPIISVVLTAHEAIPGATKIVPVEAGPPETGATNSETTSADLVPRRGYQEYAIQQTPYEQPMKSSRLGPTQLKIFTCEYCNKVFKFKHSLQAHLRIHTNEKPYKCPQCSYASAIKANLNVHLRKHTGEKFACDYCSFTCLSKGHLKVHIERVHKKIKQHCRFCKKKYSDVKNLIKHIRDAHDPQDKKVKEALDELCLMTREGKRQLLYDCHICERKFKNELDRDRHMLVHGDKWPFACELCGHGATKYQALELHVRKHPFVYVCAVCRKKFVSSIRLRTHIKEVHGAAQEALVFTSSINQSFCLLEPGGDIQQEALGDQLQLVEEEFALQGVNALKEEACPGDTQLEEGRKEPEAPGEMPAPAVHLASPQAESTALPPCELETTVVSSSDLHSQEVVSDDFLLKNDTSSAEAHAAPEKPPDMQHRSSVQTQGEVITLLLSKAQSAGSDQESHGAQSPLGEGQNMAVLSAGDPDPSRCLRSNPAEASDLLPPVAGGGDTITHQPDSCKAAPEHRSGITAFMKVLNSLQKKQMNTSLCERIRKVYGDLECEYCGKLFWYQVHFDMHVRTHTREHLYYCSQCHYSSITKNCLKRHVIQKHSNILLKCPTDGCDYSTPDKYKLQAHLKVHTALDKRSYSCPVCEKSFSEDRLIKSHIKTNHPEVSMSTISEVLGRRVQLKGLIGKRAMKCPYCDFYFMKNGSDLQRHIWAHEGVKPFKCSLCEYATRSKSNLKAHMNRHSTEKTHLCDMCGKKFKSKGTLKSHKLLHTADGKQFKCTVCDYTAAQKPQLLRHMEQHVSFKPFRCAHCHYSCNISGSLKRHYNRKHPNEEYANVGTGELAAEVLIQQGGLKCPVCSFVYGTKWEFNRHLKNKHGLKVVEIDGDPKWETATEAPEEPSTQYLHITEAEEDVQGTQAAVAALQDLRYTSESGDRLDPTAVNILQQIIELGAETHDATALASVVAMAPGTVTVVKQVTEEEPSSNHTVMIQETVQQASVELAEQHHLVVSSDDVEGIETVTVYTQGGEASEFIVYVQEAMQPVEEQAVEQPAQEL
Assay: IA-DTB cysteine engagement
Type: binding
Conditions: 22Rv1 cells, 20 μM probe, 1 h, relative to DMSO
Procedure, shortened: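 First, cells are exposed to electrophilic probes in situ. Next, lysates are labeled with IA-DTB (1 h, ambient temperature), reduced, alkylated and trypsin-digested. Then, IA-DTB peptides are enriched on streptavidin, TMT-labeled and analyzed, with ratios taken against DMSO channels.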

SMILES	% engagement ZFAT_C392
C=CC(=O)N1C[C@@H](c2ccc(Br)cc2)[C@H]1C(=O)Nc1cccc2cccnc12 [MY-1A, (2S,3R)-1-acryloyl-3-(4-bromophenyl)-N-(quinolin-8-yl)azetidine-2-carboxamide]	32.5%
C=CC(=O)N1C[C@H](c2ccc(Br)cc2)[C@@H]1C(=O)Nc1cccc2cccnc12 [MY-1B, (2R,3S)-1-acryloyl-3-(4-bromophenyl)-N-(quinolin-8-yl)azetidine-2-carboxamide]	39%
C=CC(=O)N1C[C@H](c2ccc(Br)cc2)[C@H]1C(=O)Nc1cccc2cccnc12 [MY-3A, (2S,3S)-1-acryloyl-3-(4-bromophenyl)-N-(quinolin-8-yl)azetidine-2-carboxamide]	17.5%
C=CC(=O)N1C[C@H](c2ccc(Br)cc2)[C@H]1C(=O)Nc1cccc2cccnc12 [MY-3B, (2S,3S)-1-acryloyl-3-(4-bromophenyl)-N-(quinolin-8-yl)azetidine-2-carboxamide]	68.5%
